Legend:
[1] = tested on: polypeptide having β-fructofuranosidase activity; assay: Specificity for fructofuranosyl transfer from sucrose to acceptors (TLC); format: biochemical, Bacillus sp. V230; parameters: key: Compared with a reaction mixture of sucrose, “−” means unchanged; +: the size and color of a spot for fructofuranosyl acceptor reduced slightly, and spot for fructofuransyl-transferred product was slightly detected; ++: the size and color of a spot for fructofuranosyl acceptor more reduced and a spot for fructofuransyl transferred product was clearly observed; settings: acceptor and sucrose (donor) in equal weight, 10 w/v %, 2 units/g sucrose of polypeptide of Example 2-1, 40° C., pH 5.5, 24 hours
Experimental: Using as fructofuranosyl acceptors the monosaccharides, oligosaccharides and alcohols in Table 1, the specificity of the present polypeptide for fructofuranosyl transfer was studied: Any one of the fructofuranosyl acceptors in Table 1 and sucrose as a fructofuranosyl donor were mixed in an equal amount by weight, and the mixture was dissolved in water into a 10 w/v % aqueous solution which was then mixed with 2 units/g sucrose, d.s.b., of a polypeptide obtained by the method in Example 2-1, and reacted at 40° C. and pH 5.5 for 24 hours. Thereafter, the reaction mixture was separated by TCL similarly as above, and the plate was colored by spraying 0.5 N phosphate solution containing 0.2 w/v % naphthoresorcinol, and the plate was heated at 110° C. for 5 min to color and detect fructofuranosyl-transferred products.

[2] = tested on: polypeptide having β-fructofuranosidase activity; assay: Action of the polypeptide on saccharide substrates (release of fructose, TLC); format: biochemical, Bacillus sp. V230; settings: 2 w/v % substrate, 2 units/g substrate of polypeptide of Example 2-1, 40° C., pH 5.5, 24 hours
Experimental: An aqueous solution, containing as a substrate sucrose, raffinose, erlose, stachyose, lactosucrose, xylosylfructoside, maltose, cellobiose, lactose, inulin or levan in a concentration of 2 w/v %, was mixed with 2 units/g substrate, d.s.b., of a polypeptide obtained by the method in Example 2-1 and reacted at 40° C. and pH 5.5 for 24 hours.
An adequate amount of each reaction mixture was spotted on “KIESELGEL 60”, an aluminum plate for thin layer chromatography (TLC) commercialized by Merck & Co., Inc., Rahway, USA, developed at ambient temperature using a developing solvent system of 1-butanol, pyridine and water (=7:3:1 by volume), and dried. When the reaction mixture contained fructose, the plate was colored by spraying 0.5 N phosphate solution containing 0.2 w/v % naphthoresorcinol, and heated at 110° C. for 5 min, while the plate was colored by spraying a mixture solution of 20 w/v % sulfuric acid in methanol and heated at 110° C. for 10 min.

Optimum pH = format: biochemical; settings: incubated at 40° C. for 10 min in 20 mM buffers
Thermal stability = format: physicochemical; settings: incubated for 60 min in 50 mM acetate buffer pH 6.0
[3] = β-fructofuranosidase activity assay (reducing power, Somogyi-Nelson's method); format: biochemical; settings: sucrose substrate, 20 mM acetate buffer pH 6.0 with 5 mM calcium chloride, 40° C., 10 min
Experimental: The activity of the present β-fructofuranosidase was assayed as follows: Sucrose as a substrate was dissolved in 20 mM acetate buffer (pH 6.0) containing 5 mM calcium chloride to give a concentration of 0.1 w/v %. To 5 ml of the solution was added 0.2 ml of a test sample, and the mixture was incubated at 40° C. for 10 min, followed by suspending the enzymatic reaction by the addition of 0.2 ml of the Somogyl copper solution and assaying the reducing power of the reaction mixture by the Somogyi-Nelson's method. As a control, a control solution, which was preheated at 100° C. for 10 min to inactivate the enzyme, was treated similarly as above. Under the above reaction conditions, one unit β-frustofuranosidase activity is defined as the amount of enzyme or polypeptide which gives a reducing power equal to that of 2 μmole of glucose per minute.

Optimum temperature = format: biochemical; settings: 10 min, 20 mM acetate buffer pH 6.0

Molecule: CCCCO [1-Butanol]
- Formation of fructofuranosyl-transferred product [1]: −

Molecule: CCCO [1-Propanol]
- Formation of fructofuranosyl-transferred product [1]: −

Molecule: CCC(C)O (centres unmarked) [2-Butanol]
- Formation of fructofuranosyl-transferred product [1]: −

Molecule: CC(C)O [2-Propanol]
- Formation of fructofuranosyl-transferred product [1]: −

Molecule: O=C[C@H](O)[C@@H](O)[C@H](O[C@@H]1O[C@H](CO)[C@@H](O)[C@H](O)[C@H]1O)[C@H](O)CO [Cellobiose]
- Formation of fructofuranosyl-transferred product [1]: ++
- action on substrate to release fructose [2]: did not substantially act on

Molecule: O=C(CO)[C@@H](O)[C@H](O)[C@H](O)CO [D-Fructose]
- Formation of fructofuranosyl-transferred product [1]: +

Molecule: O=C[C@H](O)[C@@H](O)[C@@H](O)[C@H](O)CO [D-Galactose]
- Formation of fructofuranosyl-transferred product [1]: ++

Molecule: O=C[C@@H](O)[C@@H](O)[C@H](O)[C@H](O)CO [D-Mannose]
- Formation of fructofuranosyl-transferred product [1]: +

Molecule: OC[C@@H](O)[C@@H](O)[C@H](O)[C@@H](O)CO [D-Sorbitol]
- Formation of fructofuranosyl-transferred product [1]: ++

Molecule: OC[C@@H](O)[C@H](O)[C@@H](O)CO [D-Xylitol]
- Formation of fructofuranosyl-transferred product [1]: ++

Molecule: O=C[C@H](O)[C@@H](O)[C@H](O)CO [D-Xylose]
- Formation of fructofuranosyl-transferred product [1]: ++

Molecule: CCO [Ethanol]
- Formation of fructofuranosyl-transferred product [1]: +

Molecule: OCCO [Ethylene glycol]
- Formation of fructofuranosyl-transferred product [1]: ++

Molecule: OCC(O)CO [Glycerol]
- Formation of fructofuranosyl-transferred product [1]: ++

Molecule: OC[C@H]1O[C@H](OC[C@H]2OC(O)[C@H](O)[C@@H](O)[C@@H]2O)[C@H](O)[C@@H](O)[C@@H]1O (some centres unmarked) [Isomaltose]
- Formation of fructofuranosyl-transferred product [1]: ++

Molecule: OC[C@H]1O[C@H](O[C@H]2C(O)O[C@H](CO)[C@@H](O)[C@@H]2O)[C@H](O)[C@@H](O)[C@@H]1O (some centres unmarked) [Kojibiose]
- Formation of fructofuranosyl-transferred product [1]: +

Molecule: O=C[C@H](O)[C@@H](O)[C@@H](O)CO [L-Arabinose]
- Formation of fructofuranosyl-transferred product [1]: +

Molecule: C[C@H](O)[C@H](O)[C@@H](O)[C@@H](O)C=O [L-Rhamnose]
- Formation of fructofuranosyl-transferred product [1]: +

Molecule: O=C(CO)[C@@H](O)[C@H](O)[C@@H](O)CO [L-Sorbose]
- Formation of fructofuranosyl-transferred product [1]: +

Molecule: OC[C@H]1O[C@@H](O[C@H]2[C@H](O)[C@@H](O)C(O)O[C@@H]2CO)[C@H](O)[C@@H](O)[C@H]1O (some centres unmarked) [Lactose]
- Formation of fructofuranosyl-transferred product [1]: ++
- action on substrate to release fructose [2]: did not substantially act on

Molecule: OC[C@@H](O)[C@@H](O[C@H]1O[C@H](CO)[C@@H](O)[C@H](O)[C@H]1O)[C@H](O)[C@@H](O)CO [Maltitol]
- Formation of fructofuranosyl-transferred product [1]: ++

Molecule: OC[C@H]1O[C@H](O[C@H]2[C@H](O)[C@@H](O)[C@H](O)O[C@@H]2CO)[C@H](O)[C@@H](O)[C@@H]1O [Maltose]
- Formation of fructofuranosyl-transferred product [1]: ++
- action on substrate to release fructose [2]: did not substantially act on

Molecule: OC[C@H]1O[C@H](OCC2O[C@@H](O)[C@H](O)[C@@H](O)[C@@H]2O)[C@H](O)[C@@H](O)[C@H]1O (some centres unmarked) [Melibiose]
- Formation of fructofuranosyl-transferred product [1]: ++

Molecule: CO [Methanol]
- Formation of fructofuranosyl-transferred product [1]: +

Molecule: OC[C@H]1O[C@@H](O[C@H]2O[C@H](CO)[C@@H](O)[C@H](O)[C@H]2O)[C@H](O)[C@@H](O)[C@@H]1O [Neotrehalose]
- Formation of fructofuranosyl-transferred product [1]: +

Molecule: OC[C@H]1O[C@H](OC[C@H]2OC(O)(CO)[C@@H](O)[C@@H]2O)[C@H](O)[C@@H](O)[C@@H]1O (some centres unmarked) [Palatinose]
- Formation of fructofuranosyl-transferred product [1]: +

Molecule: OC[C@H]1O[C@H](OC[C@H]2O[C@H](O[C@H]3[C@H](O)[C@@H](O)C(O)O[C@@H]3CO)[C@H](O)[C@@H](O)[C@@H]2O)[C@H](O)[C@@H](O)[C@@H]1O (some centres unmarked) [Panose]
- Formation of fructofuranosyl-transferred product [1]: ++

Molecule: OC[C@H]1O[C@H](OC[C@H]2O[C@H](O[C@]3(CO)O[C@H](CO)[C@@H](O)[C@@H]3O)[C@H](O)[C@@H](O)[C@@H]2O)[C@H](O)[C@@H](O)[C@H]1O [Raffinose]
- Formation of fructofuranosyl-transferred product [1]: +
- action on substrate to release fructose [2]: acted on

Molecule: OC[C@H]1O[C@H](O[C@H]2O[C@H](CO)[C@@H](O)[C@H](O)[C@H]2O)[C@H](O)[C@@H](O)[C@@H]1O [Trehalose]
- Formation of fructofuranosyl-transferred product [1]: ++

Molecule: O=C(CO)[C@@H](O[C@H]1O[C@H](CO)[C@@H](O)[C@H](O)[C@H]1O)[C@H](O)[C@H](O)CO [Turanose]
- Formation of fructofuranosyl-transferred product [1]: +

Molecule: OC[C@H]1O[C@@](CO)(O[C@H]2O[C@H](CO)[C@@H](O[C@H]3O[C@H](CO)[C@@H](O)[C@H](O)[C@H]3O)[C@H](O)[C@H]2O)[C@@H](O)[C@@H]1O [erlose]
- action on substrate to release fructose [2]: acted on

Molecule: OC[C@H]1O[C@@H](O[C@H]2[C@H](O)[C@@H](O)[C@@H](O[C@]3(CO)O[C@H](CO)[C@@H](O)[C@@H]3O)O[C@@H]2CO)[C@H](O)[C@@H](O)[C@H]1O [lactosucrose]
- action on substrate to release fructose [2]: acted on

Molecule: OC[C@H]1O[C@H](OC[C@H]2O[C@H](OC[C@H]3O[C@H](O[C@]4(CO)O[C@H](CO)[C@@H](O)[C@@H]4O)[C@H](O)[C@@H](O)[C@@H]3O)[C@H](O)[C@@H](O)[C@H]2O)[C@H](O)[C@@H](O)[C@H]1O [stachyose]
- action on substrate to release fructose [2]: acted on

Molecule: OC[C@H]1O[C@@](CO)(O[C@H]2O[C@H](CO)[C@@H](O)[C@H](O)[C@H]2O)[C@@H](O)[C@@H]1O [sucrose]
- action on substrate to release fructose [2]: acted on

Molecule: OC[C@H]1O[C@](CO)(O[C@H]2OC[C@@H](O)[C@H](O)[C@H]2O)[C@@H](O)[C@@H]1O [xylosylfructoside]
- action on substrate to release fructose [2]: acted on

Molecule: Maltotriose
- Formation of fructofuranosyl-transferred product [1]: ++

Molecule: inulin
- action on substrate to release fructose [2]: did not substantially act on

Molecule: levan
- action on substrate to release fructose [2]: did not substantially act on

B1: polypeptide in Example 2-1: polypeptide with β-fructofuranosidase activity produced by transformant BBF4 (Escherichia coli), containing the amino acid sequence of SEQ ID NO:3 (protein)
chain: MNSGDYKEDYGFAHITRADMLKIPGQQNSPQFKVPQFNASAIKNIDSAKGYDKSGNLIDLDVWDSWPLQNADGTAANYHGYHIVSALAGDPKNSDDTPLHLFYQKVGDTSIDSWKNAGRVFEDMDKFVPNDPYLKYQTQEWSGSATLTKDGQVRLFYTDYSGNPEDGGTGAGNQIISTAQVNLSQPDAATLKVDGVSDHKSVFDGGDGTVYQNIQQFIDEGKWISGDNHTLRDPHYVEDKGHKYLVFEANTGTTDGYQGDQSFNNKAYYGGSDVFFQNEKNKLLQSPKKQIASLANGALGIVELADDYTVKSVMKPLVASNTVADEVERANIFKMNNKWYLFTDSRGSKMTSDGINDKDVYMLGPGGDSLNGPHNPINETGLVLNMNLDPADLTHTYSHCGIPHPEGNNVVLTSYMTNRGFYPEHHSHLRDKLGVNIKGSDTSGGENSSGQGQFP
- optimum pH (Optimum pH): 5.5-6.0
- thermal stability (stable up to temperature) (Thermal stability): ≤ 45 °C
- specific activity (β-fructofuranosidase) [3]: 205 units/mg protein
- optimum temperature (Optimum temperature; in the absence of calcium ion): ~45 °C
- optimum temperature (Optimum temperature; in the presence of 5 mM calcium ion): about 50 °C

Source: patent publication US6762046B2, “Polypeptide having β-fructofuranosidase activity” (Kabushiki Kaisha Hayashibara Seibutsu Kagaku Kenkyujo, priority 1996, dated 2004)
